Assay results: PubChem BioAssay (NCI)
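Where inhibition never reached the appropriate level, the endpoint shown equals the highest concentration tested. Otherwise, values were interpolated linearly from a five-concentration, 48-hour dose response in 96-well plates. GI50: concentration for 50% inhibition of growth. TGI denotes the concentration required for complete inhibition of growth.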

Tests used:
Assay in all cases: NCI-60 cell line screen, 48 h
[1] = test system: 786-0 renal
[2] = test system: A498 renal
[3] = test system: A549 NSCLC
[4] = test system: ACHN renal
[5] = test system: BT-549 breast
[6] = test system: CAKI-1 renal
[7] = test system: CCRF-CEM leukemia
[8] = test system: COLO 205 colon
[9] = test system: DU-145 prostate
[10] = test system: EKVX NSCLC
[11] = test system: HCC-2998 colon
[12] = test system: HCT-116 colon
[13] = test system: HCT-15 colon
[14] = test system: HL-60(TB) leukemia
[15] = test system: HOP-62 NSCLC
[16] = test system: HOP-92 NSCLC
[17] = test system: HT29 colon
[18] = test system: IGROV1 ovarian
[19] = test system: K-562 leukemia
[20] = test system: KM12 colon
[21] = test system: LOX IMVI melanoma
[22] = test system: M14 melanoma
[23] = test system: MALME-3M melanoma
[24] = test system: MCF7 breast
[25] = test system: MDA-MB-231 breast
[26] = test system: MDA-MB-435
[27] = test system: MDA-MB-468 breast
[28] = test system: MOLT-4 leukemia
[29] = test system: NCI-H23 lung
[30] = test system: NCI-H522 lung
[31] = test system: NCI/ADR-RES ovarian
[32] = test system: OVCAR-3 ovarian
[33] = test system: OVCAR-4 ovarian
[34] = test system: OVCAR-5 ovarian
[35] = test system: PC-3 prostate
[36] = test system: RPMI-8226 leukemia
[37] = test system: RXF 393 renal
[38] = test system: SF-268 CNS
[39] = test system: SF-295 CNS
[40] = test system: SF-539 CNS
[41] = test system: SK-MEL-28 melanoma
[42] = test system: SK-MEL-5 melanoma
[43] = test system: SK-OV-3 ovarian
[44] = test system: SN12C renal
[45] = test system: SNB-19 CNS
[46] = test system: SNB-75 CNS
[47] = test system: SR leukemia
[48] = test system: SW-620 colon
[49] = test system: T-47D breast
[50] = test system: TK-10 renal
[51] = test system: U251 CNS
[52] = test system: UACC-257 melanoma
[53] = test system: UACC-62 melanoma
[54] = test system: UO-31 renal

Work on `CC[C@]12C=CCN3CC[C@@]4(c5ccc(OC)cc5N(C)[C@H]4[C@@](O)(C(=O)OC)[C@@H]1OC(=O)CCC[P+](c1ccc(C)cc1)(c1ccc(C)cc1)c1ccc(C)cc1)[C@@H]32` yielded a GI50 [1] of 756 nM, a TGI [1] of 2080 nM and a GI50 [2] of 1560 nM. It also gave a TGI [2] of 3230 nM, a GI50 [3] of 369 nM and a TGI [3] of 1470 nM. It also gave a GI50 [4] of 1320 nM, a TGI [4] of 2700 nM and a GI50 [5] of 227 nM. It also gave a TGI [5] of 727 nM, a GI50 [6] of 1330 nM and a TGI [6] of 3050 nM. It also gave a GI50 [7] of 301 nM, a TGI [7] of 1450 nM and a GI50 [8] of 180 nM. The TGI [8] was 364 nM, the GI50 [9] was 427 nM and the TGI [9] was 1580 nM. For the same molecule, the GI50 [10] was 460 nM, the TGI [10] was 1780 nM and the GI50 [11] was 319 nM. For the same molecule, the TGI [11] was 1200 nM, the GI50 [12] was 271 nM and the TGI [12] was 1110 nM. The GI50 [13] was 1630 nM, the TGI [13] was 3040 nM and the GI50 [14] was 178 nM. The TGI [14] was 593 nM, the GI50 [15] was 311 nM and the TGI [15] was 1170 nM. It also gave a GI50 [16] of 173 nM, a TGI [16] of 578 nM and a GI50 [17] of 195 nM. It also gave a TGI [17] of 446 nM, a GI50 [18] of 336 nM and a TGI [18] of 1180 nM. The GI50 [19] was 140 nM, the TGI [19] was 1150 nM and the GI50 [20] was 309 nM. For the same molecule, the TGI [20] was 1110 nM, the GI50 [21] was 327 nM and the TGI [21] was 1140 nM. For the same molecule, the GI50 [22] was 384 nM, the TGI [22] was 1370 nM and the GI50 [23] was 189 nM. The TGI [23] was 448 nM, the GI50 [24] was 229 nM and the TGI [24] was 968 nM. It also gave a GI50 [25] of 234 nM, a TGI [25] of 610 nM and a GI50 [26] of 290 nM. The TGI [26] was 1040 nM, the GI50 [27] was 133 nM and the TGI [27] was 354 nM. It also gave a GI50 [28] of 320 nM, a TGI [28] of 1460 nM and a GI50 [29] of 282 nM. For the same molecule, the TGI [29] was 1020 nM, the GI50 [30] was 264 nM and the TGI [30] was 929 nM. The GI50 [31] was 8870 nM, the TGI [31] was 49600 nM and the GI50 [32] was 337 nM. For the same molecule, the TGI [32] was 1270 nM, the GI50 [33] was 352 nM and the TGI [33] was 1580 nM. For the same molecule, the GI50 [34] was 267 nM, the TGI [34] was 905 nM and the GI50 [35] was 236 nM. For the same molecule, the TGI [35] was 1080 nM, the GI50 [36] was 128 nM and the TGI [36] was 1040 nM. For the same molecule, the GI50 [37] was 256 nM, the TGI [37] was 911 nM and the GI50 [38] was 335 nM. For the same molecule, the TGI [38] was 1420 nM, the GI50 [39] was 371 nM and the TGI [39] was 1310 nM. For the same molecule, the GI50 [40] was 313 nM, the TGI [40] was 1100 nM and the GI50 [41] was 383 nM. It also gave a TGI [41] of 1460 nM, a GI50 [42] of 356 nM and a TGI [42] of 1040 nM. For the same molecule, the GI50 [43] was 262 nM, the TGI [43] was 794 nM and the GI50 [44] was 264 nM. For the same molecule, the TGI [44] was 949 nM, the GI50 [45] was 290 nM and the TGI [45] was 1140 nM. It also gave a GI50 [46] of 217 nM, a TGI [46] of 777 nM and a GI50 [47] of 294 nM. It also gave a TGI [47] of 1400 nM, a GI50 [48] of 399 nM and a TGI [48] of 1580 nM. It also gave a GI50 [49] of 247 nM, a TGI [49] of 907 nM and a GI50 [50] of 602 nM. For the same molecule, the TGI [50] was 1920 nM, the GI50 [51] was 258 nM and the TGI [51] was 1400 nM. It also gave a GI50 [52] of 310 nM, a TGI [52] of 1120 nM and a GI50 [53] of 247 nM. It also gave a TGI [53] of 822 nM, a GI50 [54] of 1450 nM and a TGI [54] of 2820 nM.
